Key:
Assay type in all cases: cell-based, mouse
[1] = tested on: M4 melanoma cells; conditions: even at the highest concentrations tested (Fig. 7, up to 500 μg/ml)
[2] = tested on: K1735 M4 murine melanoma cell line; experiment: Cell adhesion and spreading assay on peptide- or protein-coated Immulon 1 plates
[3] = tested on: M4 melanoma cells; conditions: filters coated with type IV collagen; soluble control peptide (Fig. 3c)

| Substance | cell motility through coated filters [1] | melanoma cell spreading compared with peptide IV-H1 ([2]; all peptide concentrations (5-500 μg/ml), all time points (20-90 min) (Fig. 6)) | melanoma cell adhesion on alanyl-substituted peptide compared with peptide IV-H1 ([2]; coated surfaces, up to 500 μg/ml (Fig. 5)) | effect on type IV collagen-mediated cell motility [3] | promotion of melanoma cell adhesion or spreading ([2]; control peptide, coated surface) |
| --- | --- | --- | --- | --- | --- |
| GVKGDKGNAGWAGAA(Y) [peptide IV-H1A] | not observed | decreased ability to spread | nearly the same extent | – | – |
| GVPGKDGQAGQPGQP(Y) [peptide 17] | – | – | – | no effect | does not promote |
